Tests used:
[1] = target: Human CB2R (Cannabinoid receptor 2) (Homo sapiens, UniProt P34972); test: CB-2 in vitro cAMP (HTRF) assay; type: cell-based; details: HEK cells, cAMP HTRF, 250 nM forskolin; mean where tested more than once; read-out: CB2 HEK_cAMP EC50
How it was run: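 HEK-293 cells stably expressing receptor, plated overnight at 4E5 cells/mL, tested with 1/3 serial dilutions of compound in HBSS/HEPES/BSA buffer with 0.5 mM IBMX and forskolin (diluted to 1.5 μM in buffer). cAMP measured by competitive HTRF immunoassay (d2-cAMP, cryptate anti-cAMP), signal inversely proportional to cAMP.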

[2] = target: Human CB1R (Cannabinoid receptor 1) (Homo sapiens, UniProt P21554); test: CB-1 in vitro cAMP (HTRF) assay; type: cell-based; details: HEK cells, cAMP HTRF, 250 nM forskolin; mean where tested more than once; read-out: CB1 HEK_cAMP EC50
How it was run: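 Intracellular cAMP from HTRF ratio (d2-cAMP vs Eu-cryptate anti-cAMP), converted to nM via per-plate standards, in stable human CB1R HEK-293 cells.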

Human CB1R (Cannabinoid receptor 1), sequence (P21554 whole entry): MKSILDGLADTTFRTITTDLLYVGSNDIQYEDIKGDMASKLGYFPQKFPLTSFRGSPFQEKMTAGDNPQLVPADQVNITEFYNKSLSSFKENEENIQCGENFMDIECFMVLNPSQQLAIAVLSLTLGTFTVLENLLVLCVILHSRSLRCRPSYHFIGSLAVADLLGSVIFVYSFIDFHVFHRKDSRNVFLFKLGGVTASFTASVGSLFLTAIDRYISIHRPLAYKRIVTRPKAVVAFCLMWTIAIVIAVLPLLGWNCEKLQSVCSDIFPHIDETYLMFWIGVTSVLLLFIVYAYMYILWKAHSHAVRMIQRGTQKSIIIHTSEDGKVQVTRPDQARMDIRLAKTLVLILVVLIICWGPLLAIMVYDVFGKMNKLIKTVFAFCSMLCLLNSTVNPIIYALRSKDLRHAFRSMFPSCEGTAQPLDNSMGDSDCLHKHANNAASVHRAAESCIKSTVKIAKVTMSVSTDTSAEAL
Human CB2R (Cannabinoid receptor 2), sequence (P34972 whole entry): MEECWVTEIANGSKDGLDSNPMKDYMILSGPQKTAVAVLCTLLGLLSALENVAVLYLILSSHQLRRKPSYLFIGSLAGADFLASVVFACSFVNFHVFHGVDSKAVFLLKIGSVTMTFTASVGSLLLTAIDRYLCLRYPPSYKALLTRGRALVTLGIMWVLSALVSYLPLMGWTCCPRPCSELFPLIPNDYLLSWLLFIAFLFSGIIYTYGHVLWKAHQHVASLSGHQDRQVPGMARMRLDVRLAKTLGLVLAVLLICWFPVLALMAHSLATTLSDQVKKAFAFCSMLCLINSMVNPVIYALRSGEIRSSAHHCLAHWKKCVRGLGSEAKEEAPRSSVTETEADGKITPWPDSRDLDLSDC

EC50 [1] | EC50 [2] | Structure (SMILES)
> 10000 nM | 2410 nM | OC(c1ccc(Cl)cc1)(c1ccc2nc(CC(F)(F)F)n(CCc3cccc(Cl)c3)c2c1)c1nccs1 (centres unmarked) [Example 339]
> 10000 nM | > 10000 nM | CC(C)c1nc2ccc(C(c3ccc(Cl)cc3)c3nccs3)cc2n1C1CCN(S(=O)(=O)C(F)(F)F)CC1 (centres unmarked) [Example 397]
> 10000 nM | 598 nM | CCOC(=O)N1CCC(n2c(Cl)nc3ccc(C(c4ccc(Cl)cc4)c4nccs4)cc32)CC1 (centres unmarked) [Example 422]
> 10000 nM | 315 nM | Clc1ccc(C(c2ccc3ncn(CCc4cccc(Cl)c4)c3c2)c2nccs2)cc1 (centres unmarked) [Example 438]
1880 nM | 182 nM | O=C(O)c1cccc(OCCn2c(C3CC3)nc3ccc(C(c4ccc(Cl)cc4)c4ccc(Cl)cc4)cc32)c1 [Example 23]
3880 nM | 10.2 nM | O=S(=O)(N1CCC(Cn2c(C3CC3)nc3ccc(C(c4ccc(Cl)cc4)c4nccs4)cc32)CC1)C(F)(F)F (centres unmarked) [Example 324]
> 10000 nM | 137 nM | O=S(=O)(N1CCC(n2c(C3CCCC3)nc3ccc(C(c4ccc(Cl)cc4)c4nccs4)cc32)CC1)C(F)(F)F (centres unmarked) [Example 395]
> 10000 nM | 1490 nM | CCOC(=O)N1CCC(n2c(C3CNC3)nc3ccc(C(c4ccc(Cl)cc4)c4nccs4)cc32)CC1 (centres unmarked) [Example 414]
> 10000 nM | 22 nM | Cc1nc2ccc(C(c3ccc(Cl)cc3)c3nccs3)cc2n1C1CCN(S(=O)(=O)C(F)(F)F)CC1 (centres unmarked) [Example 386]
5840 nM | 1370 nM | O=S(=O)(c1ccc(O)c(F)c1)N1CCC(n2c(C3CC3)nc3ccc(C(c4ccc(Cl)cc4)c4ccc(Cl)cc4)cc32)CC1 [Example 220]
> 10000 nM | 192 nM | Cc1nc2ccc(C(c3ccc(Cl)cc3)c3nccs3)cc2n1CCc1cccc(Cl)c1 (centres unmarked) [Example 437]
4950 nM | 1430 nM | CCOC(=O)N1CCC(n2c(-c3ccc(Cl)cc3Cl)nc3ccc(C(c4ccc(Cl)cc4)c4nccs4)cc32)CC1 (centres unmarked) [Example 443]
6500 nM | 173 nM | O=C(c1cn[nH]n1)N1CCC(n2c(C3CC3)nc3ccc(C(c4ccc(Cl)cc4)c4ccc(Cl)cc4)cc32)CC1 [Example 199]
> 10000 nM | > 10000 nM | COc1cc(S(=O)(=O)N2CCC(n3c(C4CC4)nc4ccc(C(CO)(c5ccc(Cl)cc5)c5ccc(Cl)cc5)cc43)CC2)ccc1C(=O)O [Example 193]
2060 nM | 6.7 nM | C#CCN1CCC(n2c(C3CC3)nc3ccc(C(c4ccc(Cl)cc4)c4ccc(Cl)cc4)cc32)CC1 [Example 76]

Structure (SMILES) | EC50 [1] | EC50 [2]
O=C(O)c1ccc(CN2CCC(n3c(C4CC4)nc4ccc(C(c5ccc(Cl)cc5)c5ccc(Cl)cc5)cc43)CC2)cc1 [Example 147] | 7560 nM | 10.2 nM

From patent US20190031618A1, “BENZIMIDAZOLE DERIVATIVES USEFUL AS CB-1 INVERSE AGONISTS” (Janssen Pharmaceutica NV, priority 2015, published 2019)
